Earlier results on 21 compounds are cited in patent US12708655B2, “Botanicals as WNT/beta-catenin activators, molecular pathway regulators, tissue regenerators and health biomarker regulators” (Arbor Life Holdings, Ltd., priority 2020, dated 2026).

For data set [1] the following is noted: compounds found in Eclipta; NA = Not Applicable; cited from earlier work.
The conditions of data set [2]: compounds found in Eclipta; NA = Not Applicable; cited from earlier work. This is another data set of the same source.

Consider `O=C(O)c1ccc(O)c(O)c1` [3,4-dihydroxybenzoic acid], for which the “Anticancer activity (AC)” value in data set [1] is listed as “YES”. In addition, in data set [2], the “Antioxidant activity (AO)” value is “YES”. Turning to `O=C(O)c1ccc(O)cc1` [4-hydroxybenzoic acid], the “Anticancer activity (AC)” value in data set [1] is given as “YES”. The “Antioxidant activity (AO)” value in data set [2] is reported as “YES”. With `O=c1cc(-c2ccc(O)cc2)oc2cc(O[C@@H]3O[C@H](CO)[C@@H](O)[C@H](O)[C@H]3O)cc(O)c12` [Apigenin-7-O-glucoside], the “Anticancer activity (AC)” value in data set [1] was “YES”. For the same compound, in data set [2], the “Antioxidant activity (AO)” value is “YES”. As for `O=c1cc(-c2ccc(O)cc2)oc2cc(O)cc(O)c12` [Apigenin], the “Anticancer activity (AC)” value in data set [1] is “YES”. Besides, the “Antioxidant activity (AO)” value in data set [2] is “YES”.

Consider `O=C(/C=C/c1ccc(O)c(O)c1)c1ccc(O)cc1O` [Butein], for which the “Anticancer activity (AC)” value in data set [1] was “YES”. In data set [2], the “Antioxidant activity (AO)” value is “YES”. For `Oc1ccccc1O` [Catechol], the “Anticancer activity (AC)” value in data set [1] is reported as “YES”. For the same compound, in data set [2], the “Antioxidant activity (AO)” value is reported as “YES”. In the case of `O=c1cc(-c2ccc(O)c(O)c2)oc2cc(O[C@@H]3O[C@H](CO)[C@@H](O)[C@H](O)[C@H]3O)cc(O)c12` [Cynaroside], the “Anticancer activity (AC)” value in data set [1] was “YES”. Also, the “Antioxidant activity (AO)” value in data set [2] was “YES”. Regarding `O=c1oc2cc(O)cc(O)c2c2oc3cc(O)c(O)cc3c12` [Demethylwedelolactone], the “Anticancer activity (AC)” value in data set [1] is given as “YES”. In data set [2], the “Antioxidant activity (AO)” value is on record as “YES”. For the compound `O=C(O)c1cc(O)c(O)c(O)c1` [Gallic acid], the “Anticancer activity (AC)” value in data set [1] is “YES”. In addition, the “Antioxidant activity (AO)” value in data set [2] is given as “YES”.

As to `COC[C@@H]1Cc2cc(OC)c3c(c2[C@H](c2ccc(OC)c(OC)c2)[C@H]1COC)OCO3` [Hypophyllanthin], the “Anticancer activity (AC)” value in data set [1] was “YES”. In data set [2], the “Antioxidant activity (AO)” value is given as “YES”.

For the compound `O=c1cc(-c2ccc(O)c(O)c2)oc2cc(O)cc(O)c12` [Luteolin], in data set [1], the “Anticancer activity (AC)” value is “YES”. Also, the “Antioxidant activity (AO)” value in data set [2] is on record as “YES”. For the compound `O[C@H]1[C@H](O)[C@@H](O)[C@H](O)[C@@H](O)[C@H]1O` [Myoinositol], the “Anticancer activity (AC)” value in data set [1] is “YES”. In data set [2], the “Antioxidant activity (AO)” value is reported as “YES”. In the case of `O=C(O)c1cccnc1` [Nicotinic acid], in data set [1], the “Anticancer activity (AC)” value is “YES”. The “Antioxidant activity (AO)” value in data set [2] is “YES”.

For the compound `C[C@@H]1O[C@@H](Oc2c(-c3ccc(O)c(O)c3)oc3cc(O)cc(O)c3c2=O)[C@H](O)[C@H](O)[C@H]1O` [Quercetin-3-rhamnoside], the “Anticancer activity (AC)” value in data set [1] was “YES”. The “Antioxidant activity (AO)” value in data set [2] was “YES”. Turning to `CC[C@H](/C=C/[C@@H](C)[C@H]1CC[C@H]2[C@@H]3CC=C4C[C@@H](O)CC[C@]4(C)[C@H]3CC[C@]12C)C(C)C` [Stigmasterol], in data set [1], the “Anticancer activity (AC)” value is on record as “YES”. Besides, the “Antioxidant activity (AO)” value in data set [2] was “YES”. Take `COc1cc(O)c2c(c1)oc(=O)c1c3cc(O)c(O)cc3oc21` [Wedelolactone]: in data set [1], the “Anticancer activity (AC)” value is recorded as “YES”. Also, the “Antioxidant activity (AO)” value in data set [2] is “YES”. On to `OCc1ccc(-c2ccc(-c3cccs3)s2)s1` [α-terthienyl methanol], for which the “Anticancer activity (AC)” value in data set [1] is given as “YES”. As to `CC1(C)CC[C@]2(C)CC[C@]3(C)C(=CC[C@@H]4[C@@]5(C)CC[C@H](O)C(C)(C)[C@@H]5CC[C@]43C)[C@@H]2C1` [β-amyrin], in data set [2], the “Antioxidant activity (AO)” value is reported as “YES”. As for `CC[C@H](CC[C@@H](C)[C@H]1CC[C@H]2[C@@H]3CC=C4C[C@@H](O)CC[C@]4(C)[C@H]3CC[C@]12C)C(C)C` [β-sitosterol], the “Anticancer activity (AC)” value in data set [1] is “YES”. In data set [2], the “Antioxidant activity (AO)” value was “YES”. Demethylwedelolactone 7-glucoside: in data set [1], the “Anticancer activity (AC)” value was “YES”. Moreover, the “Antioxidant activity (AO)” value in data set [2] was “YES”.

As to Echinocystic acid, the “Anticancer activity (AC)” value in data set [1] was “YES”.
